Measured values reported in patent publication US7009052B2, “Sulfonamide derivatives” (Warner Lambert Company LLC, priority 2003, dated 2006).

Each molecule was assayed against T1, androgen receptor (Homo sapiens, UniProt P10275) (assay: AR Antagonist Cell Assay (MMTV-luciferase reporter, DHT-induced)). Conditions: MDA-MB453-MMTV clone 54-19 cells, 100 pM DHT, 17 hr.
T1 sequence (P10275 1-920 Q868H): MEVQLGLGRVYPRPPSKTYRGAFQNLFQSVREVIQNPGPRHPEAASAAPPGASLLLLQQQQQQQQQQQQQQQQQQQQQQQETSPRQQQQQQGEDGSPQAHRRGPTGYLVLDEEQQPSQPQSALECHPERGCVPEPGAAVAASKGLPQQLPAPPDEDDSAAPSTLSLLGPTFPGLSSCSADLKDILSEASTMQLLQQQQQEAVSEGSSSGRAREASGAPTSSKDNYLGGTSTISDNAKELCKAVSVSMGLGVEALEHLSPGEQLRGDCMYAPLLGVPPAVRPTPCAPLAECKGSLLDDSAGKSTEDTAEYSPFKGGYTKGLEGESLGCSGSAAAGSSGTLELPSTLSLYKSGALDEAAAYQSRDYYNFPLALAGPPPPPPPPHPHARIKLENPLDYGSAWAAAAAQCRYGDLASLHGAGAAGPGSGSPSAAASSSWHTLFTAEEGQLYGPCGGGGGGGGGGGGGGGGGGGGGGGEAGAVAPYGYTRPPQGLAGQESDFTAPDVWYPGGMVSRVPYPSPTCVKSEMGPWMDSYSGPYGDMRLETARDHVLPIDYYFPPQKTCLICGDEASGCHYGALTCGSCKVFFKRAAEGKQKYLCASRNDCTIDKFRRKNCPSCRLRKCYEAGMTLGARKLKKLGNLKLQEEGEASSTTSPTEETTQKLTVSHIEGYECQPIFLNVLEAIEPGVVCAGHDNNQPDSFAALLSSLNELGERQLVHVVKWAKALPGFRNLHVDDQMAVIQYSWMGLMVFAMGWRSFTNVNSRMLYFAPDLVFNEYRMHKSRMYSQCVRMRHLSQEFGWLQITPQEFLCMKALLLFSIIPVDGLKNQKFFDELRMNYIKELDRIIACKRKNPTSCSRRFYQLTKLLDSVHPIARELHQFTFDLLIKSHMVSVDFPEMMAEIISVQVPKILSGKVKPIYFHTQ
Format: cell-based
Outline: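 Stably transfected MDA-MB453 cells carrying an ARE-containing MMTV promoter–firefly luciferase reporter, pretreated 30 min with compound at 10 uM or 1 uM in 1% charcoal-treated serum medium. Then stimulated with 100 pM DHT for 17 hr at 37° C. and luminescence read; expressed as % inhibition of DHT-induced signal.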

Question: With `O=c1cc(C(F)(F)F)c2cc(S(=O)(=O)NC3CCCCCC3)ccc2[nH]1` [Example 126, 2-Oxo-4-trifluoromethyl-1,2-dihydroquinoline-6-sulfonic acidcycloheptylamide] as the molecule, how does the IC50 read?
Answer: 2930 nM

Question: Which IC50 does the source give for `CC(C)OCCCNS(=O)(=O)c1ccc2[nH]c(=O)cc(C(F)(F)F)c2c1` [Example 127, 2-Oxo-4-trifluoromethyl-1,2-dihydroquinoline-6-sulfonic acid(3-isopropoxypropyl)amide] here?
Answer: 1600 nM

Question: How did the IC50 turn out when `O=c1cc(C(F)(F)F)c2cc(S(=O)(=O)NCCc3ccccc3)ccc2[nH]1` [Example 128, 2-Oxo-4-trifluoromethyl-1,2-dihydroquinoline-6-sulfonic acidphenethylamide] was run?
Answer: 2650 nM

Question: How did the IC50 turn out when `O=c1cc(C(F)(F)F)c2cc(S(=O)(=O)NCc3ccc(F)cc3)ccc2[nH]1` [Example 129, 2-Oxo-4-trifluoromethyl-1,2-dihydroquinoline-6-sulfonic acid4-fluorobenzylamide] was run?
Answer: > 10000 nM

Question: `O=c1cc(C(F)(F)F)c2cc(S(=O)(=O)NC3CCc4ccccc43)ccc2[nH]1` (centres unmarked) [Example 130, 2-Oxo-4-trifluoromethyl-1,2-dihydroquinoline-6-sulfonic acidindan-1-ylamide] was tested. Which IC50 did it give?
Answer: 1030 nM

Question: How did the IC50 turn out when `CC(CNS(=O)(=O)c1ccc2[nH]c(=O)cc(C(F)(F)F)c2c1)c1ccccc1` (centres unmarked) [Example 131, 2-Oxo-4-trifluoromethyl-1,2-dihydroquinoline-6-sulfonic acid(2-phenylpropyl)amide] was run?
Answer: 350 nM

Question: `O=c1cc(C(F)(F)F)c2cc(S(=O)(=O)NCCC3=CCCCC3)ccc2[nH]1` [Example 132, 2-Oxo-4-trifluoromethyl-1,2-dihydroquinoline-6-sulfonic acid(2-cyclohex-1-enylethyl)amide] was tested. Which IC50 did it give?
Answer: 210 nM

Question: How did the IC50 turn out when `O=c1cc(C(F)(F)F)c2cc(S(=O)(=O)NCCc3cccs3)ccc2[nH]1` [Example 133, 2-Oxo-4-trifluoromethyl-1,2-dihydroquinoline-6-sulfonic acid(2-thiophen-2-ylethyl)amide] was run?
Answer: 1900 nM

Question: For `CN1CCCC1CCNS(=O)(=O)c1ccc2[nH]c(=O)cc(C(F)(F)F)c2c1` (centres unmarked) [Example 134, 2-Oxo-4-trifluoromethyl-1,2-dihydroquinoline-6-sulfonic acid[2-(1-methylpyrrolidin-2-yl)ethyl]amide], which IC50 is on record?
Answer: > 10000 nM

Question: Which IC50 does the source give for `COc1ccccc1CCNS(=O)(=O)c1ccc2[nH]c(=O)cc(C(F)(F)F)c2c1` [Example 135, 2-Oxo-4-trifluoromethyl-1,2-dihydroquinoline-6-sulfonic acid[2-(2-methoxyphenyl)ethyl]amide] here?
Answer: 170 nM

Question: How did the IC50 turn out when `CCOc1ccccc1CNS(=O)(=O)c1ccc2[nH]c(=O)cc(C(F)(F)F)c2c1` [Example 136, 2-Oxo-4-trifluoromethyl-1,2-dihydroquinoline-6-sulfonic acid2-ethoxybenzylamide] was run?
Answer: 580 nM

Question: `Cc1ccc(F)cc1CNS(=O)(=O)c1ccc2[nH]c(=O)cc(C(F)(F)F)c2c1` [Example 137, 2-Oxo-4-trifluoromethyl-1,2-dihydroquinoline-6-sulfonic acid5-fluoro-2-methylbenzylamide] was tested. Which IC50 did it give?
Answer: 3760 nM

Question: Which IC50 does the source give for `O=c1cc(C(F)(F)F)c2cc(S(=O)(=O)NCc3cccc(Cl)c3)ccc2[nH]1` [Example 138, 2-Oxo-4-trifluoromethyl-1,2-dihydroquinoline-6-sulfonic acid3-chlorobenzylamide] here?
Answer: > 10000 nM

Question: Which IC50 does the source give for `O=c1cc(C(F)(F)F)c2cc(S(=O)(=O)NCc3c(F)cccc3F)ccc2[nH]1` [Example 139, 2-Oxo-4-trifluoromethyl-1,2-dihydroquinoline-6-sulfonic acid2,6-difluorobenzylamide] here?
Answer: 2980 nM

Question: `O=c1cc(C(F)(F)F)c2cc(S(=O)(=O)NCc3ccc(F)cc3Cl)ccc2[nH]1` [Example 140, 2-Oxo-4-trifluoromethyl-1,2-dihydroquinoline-6-sulfonic acid2-chloro-4-fluorobenzylamide] was tested. Which IC50 did it give?
Answer: 5650 nM

Question: `O=c1cc(C(F)(F)F)c2cc(S(=O)(=O)NCc3cccc(Cl)c3F)ccc2[nH]1` [Example 141, 2-Oxo-4-trifluoromethyl-1,2-dihydroquinoline-6-sulfonic acid3-chloro-2-fluorobenzylamide] was tested. Which IC50 did it give?
Answer: > 10000 nM

Question: Which IC50 does the source give for `O=c1cc(C(F)(F)F)c2cc(S(=O)(=O)NCc3c(F)cccc3Cl)ccc2[nH]1` [Example 142, 2-Oxo-4-trifluoromethyl-1,2-dihydroquinoline-6-sulfonic acid2-chloro-6-fluorobenzylamide] here?
Answer: 2390 nM

Question: `CSc1ccccc1CNS(=O)(=O)c1ccc2[nH]c(=O)cc(C(F)(F)F)c2c1` [Example 143, 2-Oxo-4-trifluoromethyl-1,2-dihydroquinoline-6-sulfonic acid2-methylsulfanylbenzylamide] was tested. Which IC50 did it give?
Answer: 840 nM

Question: With `Cc1cccc(Cl)c1CNS(=O)(=O)c1ccc2[nH]c(=O)cc(C(F)(F)F)c2c1` [Example 144, 2-Oxo-4-trifluoromethyl-1,2-dihydroquinoline-6-sulfonic acid2-chloro-6-methylbenzylamide] as the molecule, how does the IC50 read?
Answer: 5530 nM

Question: With `Cc1ccc(CNS(=O)(=O)c2ccc3[nH]c(=O)cc(C(F)(F)F)c3c2)c(F)c1F` [Example 145, 2-Oxo-4-trifluoromethyl-1,2-dihydroquinoline-6-sulfonic acid2,3-difluoro-4-methylbenzylamide] as the molecule, how does the IC50 read?
Answer: > 10000 nM

Question: Which IC50 does the source give for `O=c1cc(C(F)(F)F)c2cc(S(=O)(=O)NCc3cc(Cl)ccc3F)ccc2[nH]1` [Example 146, 2-Oxo-4-trifluoromethyl-1,2-dihydroquinoline-6-sulfonic acid5-chloro-2-fluorobenzylamide] here?
Answer: 6540 nM

Question: `O=c1cc(C(F)(F)F)c2cc(S(=O)(=O)NCCc3c[nH]c4ccccc34)ccc2[nH]1` [Example 147, 2-Oxo-4-trifluoromethyl-1,2-dihydroquinoline-6-sulfonic acid[2-(1H-indol-3-yl)ethyl]amide] was tested. Which IC50 did it give?
Answer: 260 nM

Question: For `O=c1cc(C(F)(F)F)c2cc(S(=O)(=O)N[C@H]3[C@@H]4CC[C@@H](C4)[C@H]3CO)ccc2[nH]1` [Example 148, 2-Oxo-4-trifluoromethyl-1,2-dihydroquinoline-6-sulfonic acid(3-hydroxy-methylbicyclo[2.2.1]hept-2-yl)], which IC50 is on record?
Answer: 2260 nM

Question: With `COc1cc(CNS(=O)(=O)c2ccc3[nH]c(=O)cc(C(F)(F)F)c3c2)cc(OC)c1` [Example 149, 2-Oxo-4-trifluoromethyl-1,2-dihydroquinoline-6-sulfonic acid3,5-dimethoxybenzylamide] as the molecule, how does the IC50 read?
Answer: > 10000 nM

Question: With `CC(C)(Cc1ccc(F)cc1)NS(=O)(=O)c1ccc2[nH]c(=O)cc(C(F)(F)F)c2c1` [Example 150, 2-Oxo-4-trifluoromethyl-1,2-dihydroquinoline-6-sulfonic acid[2-(4-fluorophenyl)-1,1-dimethylethyl]amide] as the molecule, how does the IC50 read?
Answer: 1830 nM

Question: For `O=c1cc(C(F)(F)F)c2cc(S(=O)(=O)NCc3ccccc3OC(F)F)ccc2[nH]1` [Example 151, 2-Oxo-4-trifluoromethyl-1,2-dihydroquinoline-6-sulfonic acid2-difluoromethoxybenzylamide], which IC50 is on record?
Answer: 730 nM

Question: How did the IC50 turn out when `Cc1ccc(F)c(CNS(=O)(=O)c2ccc3[nH]c(=O)cc(C(F)(F)F)c3c2)c1Cl` [Example 152, 2-Oxo-4-trifluoromethyl-1,2-dihydroquinoline-6-sulfonic acid2-chloro-6-fluoro-3-methylbenzylamide] was run?
Answer: > 10000 nM

Question: How did the IC50 turn out when `O=c1cc(C(F)(F)F)c2cc(S(=O)(=O)NCc3ccccc3C(F)(F)F)ccc2[nH]1` [Example 153, 2-Oxo-4-trifluoromethyl-1,2-dihydroquinoline-6-sulfonic acid2-trifluoromethylbenzylamide] was run?
Answer: 750 nM

Question: With `O=c1cc(C(F)(F)F)c2cc(S(=O)(=O)NCCSCc3c(F)cccc3Cl)ccc2[nH]1` [Example 154, 2-Oxo-4-trifluoromethyl-1,2-dihydroquinoline-6-sulfonic acid[2-(2-chloro-6-fluorobenzylsulfanyl)ethyl]amide] as the molecule, how does the IC50 read?
Answer: 2180 nM

Question: `O=c1cc(C(F)(F)F)c2cc(S(=O)(=O)NCc3ccccc3Sc3ccccc3CO)ccc2[nH]1` [Example 155, 2-Oxo-4-trifluoromethyl-1,2-dihydroquinoline-6-sulfonic acid2-(2-hydroxymethyl-phenylsulfanyl)benzylamide] was tested. Which IC50 did it give?
Answer: 1940 nM

Question: Which IC50 does the source give for `O=c1cc(C(F)(F)F)c2cc(S(=O)(=O)NCc3ccccc3Br)ccc2[nH]1` [Example 156, 2-Oxo-4-trifluoromethyl-1,2-dihydroquinoline-6-sulfonic acid2-bromobenzylamide] here?
Answer: 2160 nM

Question: For `O=c1cc(C(F)(F)F)c2cc(S(=O)(=O)NCCCO)ccc2[nH]1` [Example 157, 2-Oxo-4-trifluoromethyl-1,2-dihydroquinoline-6-sulfonic acid(3-hydroxypropyl)amide], which IC50 is on record?
Answer: 6730 nM
